The values below come from patent publication US8318774B2, “Compounds involving mGluR5 receptor regulation and methods of making the compounds” (Gruenenthal GmbH, priority 2006, dated 2012).

T1 sequence (I3LUI7 19-1212): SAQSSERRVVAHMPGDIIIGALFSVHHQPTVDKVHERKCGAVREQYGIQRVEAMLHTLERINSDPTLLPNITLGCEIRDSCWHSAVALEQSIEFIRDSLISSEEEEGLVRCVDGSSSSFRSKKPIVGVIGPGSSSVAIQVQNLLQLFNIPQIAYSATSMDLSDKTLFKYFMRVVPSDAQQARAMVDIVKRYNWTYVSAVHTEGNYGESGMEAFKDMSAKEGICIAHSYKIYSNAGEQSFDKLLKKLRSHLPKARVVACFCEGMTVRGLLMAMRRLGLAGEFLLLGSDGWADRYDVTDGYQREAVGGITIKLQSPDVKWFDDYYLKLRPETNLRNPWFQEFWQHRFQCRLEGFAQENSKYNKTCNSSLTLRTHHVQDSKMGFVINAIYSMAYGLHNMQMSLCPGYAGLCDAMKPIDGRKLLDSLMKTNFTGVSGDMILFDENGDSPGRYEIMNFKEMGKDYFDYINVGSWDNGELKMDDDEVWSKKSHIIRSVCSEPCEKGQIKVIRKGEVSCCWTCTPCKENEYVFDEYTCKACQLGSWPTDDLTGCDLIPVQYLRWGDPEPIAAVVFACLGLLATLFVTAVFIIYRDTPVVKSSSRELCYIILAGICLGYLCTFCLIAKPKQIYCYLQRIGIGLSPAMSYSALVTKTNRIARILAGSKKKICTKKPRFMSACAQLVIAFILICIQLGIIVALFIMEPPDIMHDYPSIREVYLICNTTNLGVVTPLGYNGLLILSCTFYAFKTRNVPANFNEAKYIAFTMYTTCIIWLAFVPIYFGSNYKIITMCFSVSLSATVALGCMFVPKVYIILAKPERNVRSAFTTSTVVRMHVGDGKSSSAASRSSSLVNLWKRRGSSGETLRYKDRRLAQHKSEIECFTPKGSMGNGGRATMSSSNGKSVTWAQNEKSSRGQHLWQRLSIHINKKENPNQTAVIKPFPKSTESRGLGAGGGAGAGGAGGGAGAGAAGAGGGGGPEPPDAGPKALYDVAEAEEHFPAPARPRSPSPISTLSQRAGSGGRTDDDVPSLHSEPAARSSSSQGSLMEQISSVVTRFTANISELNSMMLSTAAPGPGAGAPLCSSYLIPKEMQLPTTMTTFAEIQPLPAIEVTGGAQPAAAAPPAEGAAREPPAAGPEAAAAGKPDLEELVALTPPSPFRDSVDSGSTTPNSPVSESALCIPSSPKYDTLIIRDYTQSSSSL

One test concerns the target T1, mGluR5 receptor (pig) (Sus scrofa, UniProt I3LUI7).
T1 construct: 450 μg of protein from brain homogenate are incubated; from tissue; host or cells: pig brain halves without medulla, cerebellum and pons (homogenate, differential centrifugation)
In words: Inhibition of [3H]-MPEP binding in the mGluR5 receptor binding assay (pig brain homogenate). Conditions: 5 nM [3H]-MPEP, 60 min, room temperature, read-out: IC50 mGluR5 receptor (pig) [3H]-MPEP bonding. How it is done:
I. Method for Determining the Inhibition of the [^3H]-MPEP Binding in the mGluR5 Receptor Binding Assay
Pig brain homogenate is produced by the homogenisation (Polytron PT 3000, Kinematica AG, 10,000 rpm for 90 seconds) of pig brain halves without medulla, cerebellum and pons, in a buffer with pH 8.0 (30 mM Hepes, Sigma, order no. H3375+1 “Complete Tablet” to 100 ml, Roche Diagnostics, order no. 1836145) in the ratio 1:20 (brain weight/volume) and differential centrifuging at 900×g and 40,000×g. 450 μg of protein from brain homogenate are incubated in 250 μl incubation preparation in 96-well microtiter plates, for 60 minutes at room temperature in a buffer (as above), along with 5 nM ^3[H]-MPEP (Tocris, order no. […]
Subsequently, the preparations are filtered on unifilter plates with fibreglass filter mats (Perkin Elmer, order no. 6005177) using a Brandel Cell Harvester (Brandel, TYP Robotic 9600) and subsequently washed with buffer (as above) 3 times with 250 μl per sample in each case. The filter plates are subsequently dried for 60 min at 55° C. Subsequently 30 μl Ultima Gold™ scintillator (Packard Bioscience, order no. 6013159) are added to each well, and after 3 hours the samples are measured with the β-counter (Mikrobeta, Perkin Elmer). The non-specific binding is determined by adding 10 μM MPEP (Tocris, order no. 1212).
As to `CN(CCCN(C)c1nccs1)C(=O)C#Cc1ccccc1` [Example 1], the 50% inhibitory concentration (IC50) was determined as 0.99 µM.

As for `CN(c1nccs1)C1CCN(C(=O)C#Cc2ccccc2)CC1` [Example 4, 4-(methyl-thiazol-2-yl-amino)-1-(3-phenyl-propiolyl)piperidine], the IC50 turned out to be 4.22 µM.

On to `O=C(C#Cc1ccccc1)N1CC2CN(c3nccs3)CC2C1` (stereo not drawn) [Example 3, 3-(thiazol-2-yl)-7-(3-phenyl)-propiolyl-3,7-diaza-bicyclo[3.3.0]octane], for which the IC50 worked out at 4.46 µM.

For `CN(C(=O)C#Cc1ccccc1)C1CCN(c2nccs2)CC1` [Example 6, N-methyl-3-phenyl-N-(1-(thiazol-2-yl)piperidin-4-yl)propiolamide], the concentration for half-maximal inhibition (IC50) worked out at 1 µM.

`O=C(C#Cc1ccccc1)NC1CCN(c2nccs2)CC1` [Example 5, 3-phenyl-N-(1-(thiazol-2-yl)piperidin-4-yl)propiolamide]: the IC50 was found to be 7.41 µM.

Consider `O=C(C#Cc1ccccc1)N1CCC(Nc2nccs2)CC1` [Example 2, 4-(thiazol-2-yl-amino)-1-(3-phenyl-propiolyl)piperidine], for which the IC50 was determined as 3.04 µM.

Still in this test, the particulars now being: 1 μM test compound, 5 nM [3H]-MPEP, 60 min, room temperature, read-out: % inhibition of mGluR5 receptor (pig) [3H]-MPEP bonding at 1 μM.
With `Cc1cccc(C#CC(=O)NC2CCN(c3nc(C)cs3)CC2)c1` [Example 22, N-(1-(4-methyl-thiazol-2-yl)piperidin-4-yl)-3-(3-tolyl)-propiolamide], the inhibition at 1 µM is 79%.

Consider `Cc1csc(N2CCC(NC(=O)C#Cc3cccc(C(F)(F)F)c3)CC2)n1` [Example 21, N-(1-(4-methyl-thiazol-2-yl)piperidin-4-yl)-3-(3-trifluoromethyl-phenyl)-propiolamide], for which the inhibition at 1 µM was 32%.

`COc1cccc(C#CC(=O)NC2CCN(c3nc(C)cs3)CC2)c1` [Example 11, N-(1-(4-methyl-thiazol-2-yl)piperidin-4-yl)-3-(3-methoxyphenyl)-propiolamide]: the inhibition at 1 µM was determined as 26%.

Regarding `Cc1csc(N2CCC(NC(=O)C#Cc3ccccc3F)CC2)n1` [Example 16, 3-(2-fluoro-phenyl)-N-(1-(4-methyl-thiazol-2-yl)piperidin-4-yl)-propiolamide], the inhibition at 1 µM came out at 22%.

For `Cc1csc(N2CCC(NC(=O)C#Cc3ccc(C)c(F)c3)CC2)n1` [Example 20, 3-(3-fluoro-4-methyl-phenyl)-N-(1-(4-methyl-thiazol-2-yl)piperidin-4-yl)-propiolamide], the inhibition at 1 µM worked out at 39%.

Take `Cc1csc(N2CCC(NC(=O)C#Cc3ccccc3)CC2)n1` [Example 10, N-(1-(4-methyl-thiazol-2-yl)piperidin-4-yl)-3-phenyl-propiolamide]: the inhibition at 1 µM is 36%.
